Consider nine compounds from ChEMBL document CHEMBL1201862, “PubChem BioAssay data set” (2004).

Molecules are shown by their SMILES.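 The compound was tested at five concentrations on cells cultured in 96-well plates, with a 48-hour exposure period. The concentration for 50% growth inhibition is given as GI50.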 Active and inactive are the calls of the source. Rule as the data show it: active = GI50 up to about 1.1 µM and inactive = higher. A value given as a limit tells only on which side of the number the result lay.

Some test systems named below: SNB-19; HOP-92; SNB-75; NCI-H23; OVCAR-3; HCT-116; U-251; HOP-62; TK-10; UACC-257; UO-31; OVCAR-5; OVCAR-4; HCC 2998; NCI-H522; RPMI-8226; SK-MEL-28; UACC-62.
What all share (assay): NCI-60 cell line screen, 48 h

Take `CCc1cc2c(c3c1CCCC3=O)CC1(Cc3ccc(C(=O)OC)cc3C1)C2` (stereo not drawn): the GI50 in the test on SNB-19 was > 100 µM (inactive); with HOP-92, 29.1 µM (inactive); in the test with SNB-75 it was 26.7 µM (inactive); in the test on NCI-H23, 85.7 µM (inactive); in the test on OVCAR-3, > 100 µM (inactive); with HCT-116, 37.9 µM (inactive). The GI50 with U-251 is 82.8 µM (inactive); with HOP-62, > 100 µM (inactive); with TK-10 it was > 100 µM (inactive); with UACC-257 it was 32.1 µM (inactive); in the test with UO-31, 48.3 µM (inactive); in the test with OVCAR-5, > 100 µM (inactive). Also, the GI50 in the test on OVCAR-4 is 40.9 µM (inactive); with HCC 2998, 93.1 µM (inactive); with NCI-H522, 51.1 µM (inactive); in the test on RPMI-8226, 18.7 µM (inactive); in the test with SK-MEL-28 it was 64 µM (inactive).
Regarding `CCN1CCN=C2c3cc(OC)ccc3Nc3c([N+](=O)[O-])ccc1c32`, the GI50 in the test on HOP-92 was 0.622 µM (active); in the test on UACC-62, 1.39 µM (inactive); in the test on SNB-75 it was 1.68 µM (inactive); in the test with NCI-H23 it was 1.35 µM (inactive); in the test on HOP-62, 0.634 µM (active); in the test with TK-10, 3.75 µM (inactive). The GI50 with UACC-257 was 1.83 µM (inactive); in the test with OVCAR-4 it was 1.29 µM (inactive); in the test on HCC 2998, 0.78 µM (active); in the test on RPMI-8226 it was 0.552 µM (active); with SK-MEL-28, 2.32 µM (inactive).
On to `CC#CC1/C(=C\C(=O)OC)CCCC1O` (stereo not drawn), for which the GI50 in the test with SNB-19, in the test with UACC-62, in the test with SNB-75, in the test on NCI-H23, in the test with OVCAR-3 and in the test with HCT-116 was > 100 µM (inactive) throughout. Also, the GI50 in the test with U-251, in the test on HOP-62, in the test with TK-10, with UACC-257, in the test on UO-31 and with OVCAR-5 was > 100 µM (inactive) each time. Besides, the GI50 in the test on OVCAR-4, with HCC 2998, with NCI-H522 and in the test with SK-MEL-28 was > 100 µM (inactive) each time.
For the compound `CCOC(=O)c1ccc(/N=C2\Sc3nc4ccccc4n3\C2=N\c2ccc(C(=O)OCC)cc2)cc1`, the GI50 was 12.1 µM (inactive) in the test with SNB-19; 12.8 µM (inactive) in the test with HOP-92; 16.1 µM (inactive) with UACC-62; 22.6 µM (inactive) with NCI-H23; 12.9 µM (inactive) in the test on OVCAR-3; 6.58 µM (inactive) with HCT-116. Moreover, the GI50 was 21.5 µM (inactive) in the test with HOP-62; 17.3 µM (inactive) in the test on TK-10; 31.5 µM (inactive) in the test on UACC-257; 60 µM (inactive) in the test on OVCAR-5; 24.3 µM (inactive) with OVCAR-4; 41.8 µM (inactive) with HCC 2998. Moreover, the GI50 was 24.7 µM (inactive) in the test on NCI-H522 and 39.2 µM (inactive) in the test with SK-MEL-28.
Regarding `C=C1C(=O)C23CC1CCC2C12CO[C@@]3(O)[C@@H](O)C1C(C)(C)C=CC2=O` (stereo partly drawn), the GI50 in the test on SNB-19 was 1.41 µM (inactive); with HOP-92, 0.785 µM (active); with UACC-62, 0.989 µM (active); in the test with SNB-75 it was 6.03 µM (inactive); in the test with NCI-H23 it was 0.752 µM (active); with OVCAR-3, 1.11 µM (active). For the same compound, the GI50 with HCT-116 is 0.488 µM (active); with U-251, 1.49 µM (inactive); with HOP-62, 7.41 µM (inactive); in the test on TK-10, 0.893 µM (active); with UACC-257 it was 0.684 µM (active); with UO-31, 1.73 µM (inactive). For the same compound, the GI50 was 4.76 µM (inactive) in the test with OVCAR-5; 1.15 µM (inactive) in the test on HCC 2998; 1.24 µM (inactive) in the test with NCI-H522; 0.75 µM (active) in the test with RPMI-8226; 0.738 µM (active) in the test on SK-MEL-28.
As for `CCn1c(=O)c2nc(SC)sc2n(-c2ccc(C)cc2)c1=O`, the GI50 with SNB-19 was > 100 µM (inactive); in the test with HOP-92, > 100 µM (inactive); in the test on SNB-75 it was 29.4 µM (inactive); with NCI-H23 it was > 100 µM (inactive); in the test on OVCAR-3 it was > 100 µM (inactive); with HCT-116, > 100 µM (inactive). Also, the GI50 was > 100 µM (inactive) in the test with U-251; > 100 µM (inactive) in the test on HOP-62; > 100 µM (inactive) with TK-10; > 100 µM (inactive) with UACC-257; 32.1 µM (inactive) in the test with UO-31; > 100 µM (inactive) in the test on OVCAR-5. Further, the GI50 in the test with OVCAR-4, in the test on HCC 2998, with NCI-H522, in the test with RPMI-8226 and in the test on SK-MEL-28 was > 100 µM (inactive) in each case.
As for `Oc1nc2nc3ccccc3nc2nc1O`, the GI50 is > 100 µM (inactive) in the test with SNB-19; > 100 µM (inactive) with HOP-92; > 100 µM (inactive) in the test on UACC-62; 75.2 µM (inactive) with SNB-75; > 100 µM (inactive) in the test with NCI-H23; > 100 µM (inactive) with OVCAR-3. In addition, the GI50 with HCT-116, with U-251, in the test with HOP-62, in the test on TK-10, in the test on UACC-257 and in the test with UO-31 was > 100 µM (inactive) in each case. Moreover, the GI50 in the test with OVCAR-5, in the test on OVCAR-4, in the test with HCC 2998, with NCI-H522, in the test on RPMI-8226 and with SK-MEL-28 was > 100 µM (inactive) in each case.
For `O=C([O-])C1([n+]2c(-c3ccccc3)cc(-c3ccccc3)cc2-c2ccccc2)CC1`, the GI50 with SNB-19 was 43.2 µM (inactive); in the test on HOP-92 it was 19.8 µM (inactive); in the test with UACC-62, 21.5 µM (inactive); in the test with SNB-75, 46.8 µM (inactive); with NCI-H23, 86.9 µM (inactive); in the test with OVCAR-3, 38.6 µM (inactive). Moreover, the GI50 in the test with HCT-116 is 41.1 µM (inactive); with U-251, 28.7 µM (inactive); in the test with HOP-62 it was > 100 µM (inactive); in the test with TK-10 it was > 100 µM (inactive); in the test with UACC-257, 25.4 µM (inactive); in the test with OVCAR-5 it was > 100 µM (inactive). In addition, the GI50 in the test with OVCAR-4 was 96.8 µM (inactive); in the test on HCC 2998 it was 29.3 µM (inactive); with NCI-H522, 54.7 µM (inactive); in the test on RPMI-8226, 32.2 µM (inactive); with SK-MEL-28 it was > 100 µM (inactive).
In the case of `CC(O)c1nc(C#N)c(N)o1` (stereo not drawn), the GI50 with SNB-19, with HOP-92, with UACC-62, in the test on SNB-75, in the test on NCI-H23 and in the test on OVCAR-3 was > 100 µM (inactive) throughout. Besides, the GI50 with HCT-116, in the test on U-251, in the test on HOP-62, with TK-10, in the test on UACC-257 and with UO-31 was > 100 µM (inactive) throughout. Moreover, the GI50 with OVCAR-5, in the test on NCI-H522, with RPMI-8226 and with SK-MEL-28 was > 100 µM (inactive) in each case.
